Results reported in patent US20220381657A1, “METHOD FOR PREPARING BIOLOGICAL MATERIAL HAVING EXCELLENT LIGHT-TRANSMITTING PROPERTY” (RIKEN, priority 2016, published 2022).
Counter-ions that a name gives are not always drawn. Like-named read-outs stand apart in the source and are kept apart here.

Tests used:
[1] = test system: bovine coagulated blood; assay: Decoloring screening: heme eluted from bovine coagulated blood (OD420-OD700); settings: decolorization; for 700 nm calibrated 420 nm Average: OD420 calibrated by OD700; for integrated value 500-700 nm Average: integrated absorbance 500-700 nm
Protocol: A high-throughput screening system for evaluating the decoloring ability of various compounds was constructed. The screening system involved adding an aqueous solution of each compound to bovine coagulated blood and then measuring the absorbance of heme collected in the supernatant.
Specifically, to bovine blood, an equal amount of 8% PFA solution was added, and reacted at 4° C. overnight. The mixed liquid was centrifuged at 1500×g for 5 minutes, and the supernatant containing PFA was discarded. Then, the same amount of PBS as the original volume of blood was added to prepare a coagulated blood sample. To 150 μL of 10 wt % aqueous solution of each compound, 50 μL of the coagulated blood sample was added, and reacted at 37° C. overnight. The reaction solution was centrifuged at 1500×g for 5 minutes, and then 100 μL of the supernatant was added to a plate so as to be subjected to absorbance measurement. A sample which is suspended in water instead of being dissolved in the water has a weak decoloring effect, but none the less has a high absorbance value. […]

[2] = test system: Serius
[3] = for 400 nm: OD at 400 nm of the chemical

Compound	pH (Table 4)	700 nm calibrated 420 nm Average [1]	integrated value 500-700 nm Average [1]	other results
NCC1CCOCC1 [#0467, 4-Aminomethyl-tetrahydropyran]	–	1.52	1.13	Fluorescence quench Average ([2]; relative fluorescence): 0.65; 400 nm [3]: 0.049; pH ([…]): 12.9
CCC(N)CCN (stereo not shown) [#0678]	–	1.71	1.15	Fluorescence quench Average ([2]; relative fluorescence): 0.60; 400 nm [3]: 0.049; pH ([…]): 13.6
C1CCC2=NCCCN2CC1 [#0594, 1,8-Diazabicyclo [5.4.0]-7-undecene]	–	3.13	1.94	Fluorescence quench Average [2]: 0.54
O=C(O)CCCCCl [#0062, 5-Chlorovaleric acid]	2.86	–	–	–
CCCCCCCCCCCC(=O)N(C)CC(=O)[O-].[Na+] [#1466, Sodium N- lauroylsarcosinate]	–	–	–	OD400 ([3]; Table 1): 0.05; pH (Table 1): 6.1
CN(CCCN)CCCN [#0380]	–	2.62	1.58	Fluorescence quench Average ([2]; relative fluorescence): 0.62
c1cnc(N2CCNCC2)nc1 [#1167, 1-(2-Pyrimidyl) piperazine]	–	1.39	1.09	Fluorescence quench Average ([2]; relative fluorescence): 0.01; 400 nm [3]: 0.084; pH ([…]): 12.5
NCCCCN [#0783]	–	2.21	1.42	Fluorescence quench Average ([2]; relative fluorescence): 0.60; 400 nm [3]: 0.05; pH ([…]): 14.0
c1cnccn1 [#1086]	–	1.41	1.39	Fluorescence quench Average ([2]; relative fluorescence): 0.67; 400 nm [3]: 0.051; pH ([…]): 8.6
C[N+](C)(C)Cc1ccccc1.[OH-] [#0387, Benzyltrimethyl- ammonium Hydroxide]	–	3.14	2.56	Fluorescence quench Average ([2]; relative fluorescence): 0.00; 400 nm [3]: 0.054; OD400 ([3]; Table 1): 0.054; pH (Table 1): 13.8; pH ([…]): 13.8
NCCCCCO [#0003]	–	1.83	1.21	Fluorescence quench Average ([2]; relative fluorescence): 0.63; 400 nm [3]: 0.052; pH ([…]): 12.5
Cl.NC1CCSC1=O (racemic) [#1213, DL-Homocysteinethiolactone hydrochloride]	2.31	–	–	–
CC(CN)CCCN (stereo not shown) [#1267, 2-Methyl-1,5-diaminopentane]	–	1.48	1.09	Fluorescence quench Average ([2]; relative fluorescence): 0.51; 400 nm [3]: 0.08; OD400 ([3]; Table 1): 0.08; pH (Table 1): 12.9; pH ([…]): 12.9
C[n+]1ccc(-c2cc[n+](C)cc2)cc1 [#0652, 1,1′-Dimethyl-4,4′-bipyridinium dichloride]	–	2.01	2.01	Fluorescence quench Average [2]: 0.42
O=C(O)CCO [#0155, 3-Hydroxypropionic acid]	3.66	–	–	–
C=CCC(=O)O [#0073, 3-Butenoic acid]	3.43	–	–	–
NCCCNCCNCCCN [#0277, N,N′-Bis(3-aminopropyl) ethylenediamine]	–	1.20	0.83	Fluorescence quench Average ([2]; relative fluorescence): 0.71; 400 nm [3]: 0.053; pH ([…]): 13.1
O=C(O)CCCCBr [#0074, 5-Bromovaleric acid]	2.39	–	–	–
NCCCOCCCN [#0394, Bis(3-aminopropyl) ether]	–	3.27	1.85	Fluorescence quench Average ([2]; relative fluorescence): 0.54; 400 nm [3]: 0.067; pH ([…]): 13.2
CSCCC(NC(C)=O)C(=O)O (racemic) [#0360, N-Acetyl- DL-methionine]	2.75	–	–	–

Compound	pH (Table 4)	700 nm calibrated 420 nm Average [1]	integrated value 500-700 nm Average [1]	other results
CCOC(=O)[C@H]1CC[C@H](O)CC1 [#0216, Ethyl trans-4-hydroxy-cyclohexanecarboxylate]	5.68	–	–	–
O=C(O)[C@@H](O)c1ccccc1Cl [#0746, 2-Chloro-L-mandelic acid]	2.14	–	–	–
O=C(O)C(C(=O)O)C1CCCC1 [#0762, Cyclopentyl malonic acid]	2.74	–	–	–
[Cl-].c1ccc(C[P+](c2ccccc2)(c2ccccc2)c2ccccc2)cc1 [#0425, Benzyltriphenyl-phosphonium chloride]	–	1.14	0.83	Fluorescence quench Average ([2]; relative fluorescence): 0.35
CCCCCCCCC(=O)[O-].[Na+] [#0865, Sodium nonanoate]	–	–	–	OD400 ([3]; Table 1): 0.051; pH (Table 1): 8.9
N[C@@H](CS(=O)(=O)O)C(=O)O [#0745, L-cysteic acid]	2.11	–	–	–
CCN(CC)CCO [#1575, 2-Diethylamino-ethanol]	–	2.41	1.21	Fluorescence quench Average [2]: 0.61
Dodecyldimethyl(3- sulfopropyl)ammonium [#0661]	–	2.10	1.70	Fluorescence quench Average ([2]; relative fluorescence): 1.13; 400 nm [3]: 0.051; OD400 ([3]; Table 1): 0.051
NC[C@H](O)[C@@H](O)[C@H](O)[C@H](O)CO [#0956, D-Glucamine, reference compound]	–	–	–	OD400 ([3]; Table 3): 0.260; pH (Table 3): 12.3
CCCCCCCCCCCCCC[N+](C)(C)Cc1ccccc1 [#0362]	–	–	–	Fluorescence quench Average [2]: 1.07
Cl.NOCc1ccccc1 [#0429, O-Benzylhydroxylamine hydrochloride]	4.10	–	–	–
CC(=O)N[C@@H](CS)C(=O)O [#0346, N-Acetyl- L-cysteine]	2.86	–	–	–
CSCC[C@H](NC(C)=O)C(=O)O [#0350, N-Acetyl- L-methionine]	2.74	–	–	–
CN(C)CCC(=O)O.Cl [#0702, 3-(Dimethylamino) propionic acid hydrochloride]	2.17	–	–	–
CC(C)(C)CC(C)(C)c1ccc(OCCOCC[N+](C)(C)Cc2ccccc2)cc1 [#0441, Benzethonium Chloride]	–	3.40	2.80	Fluorescence quench Average [2]: 1.08
Cl.O=C(O)CCP(CCC(=O)O)CCC(=O)O [#0197, Tris(2-carboxyethyl) phosphine hydrochloride]	–	4.28	3.89	Fluorescence quench Average [2]: −0.05
CCCCCCCCCCCCCCCC[N+](C)(C)C.[Cl-] [#1235, Hexadecyltrimethyl- ammonium chloride]	–	2.85	2.71	Fluorescence quench Average [2]: 1.06
Cl.NC1(C(=O)O)CCC1 [#0473, 1-Aminocyclobutanecarboxylic acid hydrochloride]	2.18	–	–	–
CC(=O)N(CC(O)CO)c1c(I)c(C(=O)NCC(O)CO)c(I)c(C(=O)NCC(O)CO)c1I (stereo not shown) [Histodenz ™, reference compound]	–	–	–	OD400 ([3]; Table 3): 0.054; pH (Table 3): 7.3
OCCN1CC1 [#1061]	–	1.14	0.91	Fluorescence quench Average [2]: 0.80

Now from value to compound, other results behind:

pH (Table 4)	Compound	700 nm calibrated 420 nm Average [1]	integrated value 500-700 nm Average [1]	other results
2.63	O=C(O)[C@H](O)[C@@H](O)[C@H](O[C@@H]1O[C@H](CO)[C@H](O)[C@H](O)[C@H]1O)[C@H](O)CO [#1010, Lactobionic acid]	–	–	–
5.19	F[N+]12CC[N+](CCl)(CC1)CC2 [#1608, N-Fluoro-N′-(chloromethyl) triethylenediamine bis (tetrafluoroborate)]	–	–	–
2.61	N#CCC(=O)O [#1569, Cyanoacetic acid]	–	–	–
2.67	O=CNCC(=O)O [#0942, N-Formylglycine]	–	–	–
4.22	Cl.N=C(N)Nc1ccc(C(=O)O)cc1 [#1249, 4-Guanidino benzoic acid hydrochloride]	–	–	–
2.80	CN1CCN(Cc2ccc(C(=O)O)cc2)CC1 [#0916, 4-[(4-Methyl-1-piperazinyl)methyl]benzoic acid dihydrochloride]	–	–	–
3.08	OCCCCCl [#1365, 4-Chloro-1-butanol (contains tetrahydrofuran)]	–	–	–
2.21	O=S(=O)(O)c1cccnc1 [#1165, Pyridine-3-sulfonic acid]	–	–	–
2.34	O=C(O)CC(O)C(=O)O (racemic) [#1300, DL-Malic acid]	–	–	–
4.92	O=C(O)/C=C/c1ccc(Cn2ccnc2)cc1 [#1108, Ozagrel hydrochloride hydrate]	–	–	–
6.00	CCCCCCC(O)CO (stereo not shown) [#1109, 1,2-Octanediol]	–	–	–
2.69	O=C(O)CC(CC(=O)O)C(=O)O [#1094, 1,2,3-Propanetri-carboxylic acid]	–	–	–
2.22	O=C(O)CCNCCNCCC(=O)O [#0936, Ethylenediamine-N,N′- dipropionic acid dihydrochloride]	–	–	–
2.68	O=C(O)CC(S)C(=O)O (stereo not shown) [#1302, Thiomalic acid]	–	–	–
3.92	CC[n+]1ccccc1Br [#1562, 2-Bromo-1-ethylpyridinium tetrafluoroborate]	–	–	–
2.31	OCCCCBr [#1366, 4-Bromo-1-butanol (contains tetrahydrofuran)]	–	–	–
2.69	O=C1O[C@H](CO)[C@@H](O)[C@H](O)[C@H]1O [#0963, D-(+)-Glucono-1,5-lactone]	–	–	–
